Consider 5 molecules from patent US7176281B2 (priority 2003, dated 2007).

The test system of test [1] is sPLA2. The conditions noted are these: known selective sPLA2 inhibitor; cited from earlier work.
Test [2] deals with sPLA2. Put plainly: Inhibition of sPLA2 activity at fixed concentrations. In kind it is biochemical.
Test [3] has as its target T1, serum group IIA secretory phospholipase A2 (Homo sapiens, UniProt P14555).
T1 construct: host or cells: patients' serum
T1 sequence (P14555 21-144): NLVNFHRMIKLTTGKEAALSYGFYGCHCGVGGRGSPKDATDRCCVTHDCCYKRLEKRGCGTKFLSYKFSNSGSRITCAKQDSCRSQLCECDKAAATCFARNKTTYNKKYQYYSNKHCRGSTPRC
The following applies: patients with severe sepsis; cited from earlier work.

For test [4], the target named is snake venom PLA2 (crotoxin B) (Crotalus durissus terrificus, UniProt P0CAS2). Briefly: biochemical.
The target in test [5] is T2, arthritis synovial fluid (human type IIA sPLA2) (Homo sapiens, UniProt P14555).
T2 construct: arthritis synovial fluid (human type IIA sPLA2); from tissue; host or cells: human arthritis synovial fluid
T2 sequence (P14555 21-144): T1 sequence (P14555 21-144)
Briefly: PLA2 inhibition, E. coli membrane assay, arthritis synovial fluid sPLA2. The conditions noted are these: read-out: IC50 (mean±SD; n=3). The format is biochemical.

For test [6], the target named is T3, 100-kDa human recombinant cytosolic form of PLA2 (cPLA2) (Homo sapiens, UniProt P47712).
T3 sequence (P47712 1-749): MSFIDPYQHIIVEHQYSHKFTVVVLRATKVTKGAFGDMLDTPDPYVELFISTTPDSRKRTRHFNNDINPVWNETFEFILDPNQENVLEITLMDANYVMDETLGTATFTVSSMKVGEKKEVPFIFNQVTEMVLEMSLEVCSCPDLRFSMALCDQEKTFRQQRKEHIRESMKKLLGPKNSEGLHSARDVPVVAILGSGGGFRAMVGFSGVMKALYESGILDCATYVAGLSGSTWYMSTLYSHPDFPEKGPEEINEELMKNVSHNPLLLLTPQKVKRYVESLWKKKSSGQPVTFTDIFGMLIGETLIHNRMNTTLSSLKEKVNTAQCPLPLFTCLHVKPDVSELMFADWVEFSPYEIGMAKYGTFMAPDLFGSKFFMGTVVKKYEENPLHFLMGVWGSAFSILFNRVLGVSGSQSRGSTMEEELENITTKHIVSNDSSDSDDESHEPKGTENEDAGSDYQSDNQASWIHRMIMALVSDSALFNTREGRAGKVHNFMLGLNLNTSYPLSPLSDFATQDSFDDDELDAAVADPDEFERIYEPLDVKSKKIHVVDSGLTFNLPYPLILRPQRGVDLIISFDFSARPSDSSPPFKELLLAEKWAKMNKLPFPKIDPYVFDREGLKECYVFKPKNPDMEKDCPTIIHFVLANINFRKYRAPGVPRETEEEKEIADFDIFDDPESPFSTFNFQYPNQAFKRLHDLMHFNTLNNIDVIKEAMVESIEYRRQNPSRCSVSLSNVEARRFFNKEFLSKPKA
Put plainly: PLA2 inhibition, E. coli membrane assay, cPLA2. In kind it is biochemical.

The target in test [7] is T4, Group IIA purified human synovial sPLA2 (Homo sapiens, UniProt P14555).
T4 construct: purchased Cayman, USA
T4 sequence (P14555 21-144): T1 sequence (P14555 21-144)
Put plainly: In vitro inhibition of purified human synovial sPLA2, 3H-labelled E. coli membranes. In kind it is biochemical. The conditions noted are these: 3H-labelled E. coli membranes as substrate.

For test [8], the system named is mammalian (human and rat) type IIA sPLA2. The format is binding.
The test system of test [9] is Tg197 transgenic mice (chronic inflammatory polyarthritis). Put plainly: Tg197 transgenic mouse arthritis model, experiment 2 (4 weeks, time course). In kind it is in vivo. The protocol: In experiment 2, mice were divided into 6 groups (A–F), and were injected i.p with 3 weekly doses (150 μg peptide in 50 μL DMSO per dose) of either the test peptide P-NT.II or the control peptide with the scrambled sequence for 4 consecutive weeks. Tg197 mice in Group B (n=18) were further divided into 4 sub-groups (B1, B2, B3, B4). At the end of 1st week, four Tg197 mice from Group B (sub-group B1) were sacrificed and both hind legs taken for histological processing and scorings. The remaining Tg197 mice from the other sub-groups B were continued with 3 regular doses of injections per week, and four Tg197 mice from each sub-group B2 and B3, were sacrificed at the end of 2nd and 3rd weeks, respectively. At the end of 4th week, all remaining Tg197 mice ([…]) were sacrificed for collection of joint specimens.
Disease monitoring was done by gross observations based on body weight measurements and arthritis scoring, which were done twice weekly after treatment until all the animals were sacrificed at 5th week in experiment 1, or at 4th week in experiment 2. Arthritis score (AS) was recorded on both ankle joints, and average scores as shown below were taken: • 0=no arthritis (normal appearance and flexion); • 0.5=onset of arthritis (mild joint swelling); • 1.0=mild arthritis (joint distortion); • 1.5=as above+finger deformation, less strength on flexion; • […]=moderate arthritis (severe swelling, joint deformation, no strength on flexion); • 2.5=as above+finger deformation in paws; • 3.0=heavy arthritis (ankylosis detected on flexion and severely impaired movement).
For histopathological scoring, both hind legs were dissected and fixed in 10% formaldehyde overnight, decalcified in citrate-buffered formic acid for 3 days at 4° C., and processed for light microscopy (LM). • Histopathological score (HS) was evaluated as follows: • 0=no detectable pathology, • 1=hyperplasia of the synovial membrane and presence of polymorphonuclear infiltrates • 2=pannus and fibrous tissue formation and focal subchondrial bone erosion • 3=articular cartilage destruction and bone erosion • 4=articular cartilage destruction and extensive bone erosion.
Transmission electron microscopy (TEM): Ankle joints dissected from the left hind leg of each mouse were split open longitudinally through the midline between the tibia and the talus, prefixed overnight with 2.5% glutaraldehyde in phosphate buffer, pH 7.4 (PB) and rinsed with PB. After fixing with 1% osmium tetroxide in PB for 2 h, they were dehydrated in a graded series of ethanol and processed into Araldite. Semi-thin sections (1.0μ) were cut and stained with methylene blue to observe the orientation and for histopathological scorings under the light microscope. Ultra-thin sections (80–90 nm) were then cut with an ultramicrotome (Riechert-Jung Ultracut E), mounted on copper grids, counterstained with uranyl acetate and lead citrate, and evaluated under electron microscope (CM120 Biotwin, FEI Company).
Anti-inflammatory activity of the candidate peptide P-NT.II was examined as a new treatment option for modulating rheumatoid arthritis (RA) in a transgenic animal model. To evaluate the potential effectiveness of the peptide as prophylaxis against RA, two separate experiments were performed in 4 week-old transgenic (Tg197) mice and non-transgenic wild-type (wt) mice. These transgenic mice (Tg197) express human tumor necrosis factor (TNFα), a cytokine which has been implicated in the pathogenesis of human RA.

The subject of test [10] is serum sPLA2. Briefly: Serum sPLA2 levels in Tg197 mice, E. coli membrane assay. The format is in vivo, mouse. The following applies: 3–4 weeks post-treatment. As for the experimental part:
Serum of transgenic (Tg197) mice and non-transgenic wild type controls were measured for sPLA2 using an Escherichia coli (E. coli) membrane assay as described previously [Eur J Biochem 2002, 269:719–727]. In brief, [^3H] arachidonate-labeled E. coli membrane suspension (5.8 μCi/μmol, Perkin Elmer, USA) was used as substrate, and 25 mM CaCl2-100 mM Tris-HCl (pH 7.5) as assay buffer. The reaction mixture containing substrate (20 μl), and either purified human synovial sPLA2 standard (1–80 ng/ml, Cayman, USA) or serum (10 μl) in a final volume of 250 μl in assay buffer was incubated at 37° C. for 1 h, and the reaction terminated with 750 μl of chilled PBS containing 1% BSA. 500 μl aliquots of the supernatant were then taken to measure the amount of [^3H] arachidonate released from the E. coli membrane using liquid scintillation counting (Beckman LS 6500 Scintillation Counter). The amount of sPLA2 present in the serum was calculated from the standard curve, and is expressed as ng/ml±SEM.
FIG. 12 depicts time course of serum sPLA2 levels. Serum sPLA2 levels were measured with an E. coli membrane assay in blood samples collected from untreated, P-NT.I- and scrambled P-NT.II-treated Tg197 mice at weekly intervals. Values are the mean±SD (n=4/group). […]

The target of test [11] is bee (Apis mellifera) venom PLA2 (Group III) (Apis mellifera, UniProt P00630).
Test [12] has as its target crotoxin B (Group IIA) (Crotalus durissus terrificus, UniProt P0CAS2).
Test [13] has as its target T5, human recombinant cPLA2 (Homo sapiens, UniProt P47712).
T5 sequence (P47712 1-749): T3 sequence (P47712 1-749)
In kind it is binding.

The target in test [14] is β-bungarotoxin (Group I) (Bungarus multicinctus, UniProt P00617).

Where a SMILES comes first, the peptide text is derived from it. Where no end group is shown, it is not given here.

Sequence of snake venom PLA2 (crotoxin B) (P0CAS2 whole entry, looked up): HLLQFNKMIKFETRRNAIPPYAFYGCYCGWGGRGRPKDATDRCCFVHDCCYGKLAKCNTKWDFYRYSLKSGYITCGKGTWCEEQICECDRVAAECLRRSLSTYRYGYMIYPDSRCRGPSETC

In the case of `CC(=O)O[C@@H]1C[C@@H]2[C@@]3(C)CCCC(C)(C)[C@@H]3CC[C@@]2(C)[C@@H]2CC=C(C=O)[C@H](C=O)[C@@]12C` [12-epi-scalaradial], the IC50 (usually the concentration that inhibits the measured activity by half) in test [1] is 5.4 µM. Moreover, the “inhibition of sPLA2 activity” value is on record as 75% in [2] (10 μM) and 95% in [2] (20 μM).
On to `CCc1c(C(=O)C(N)=O)c2c(OCC(=O)O)cccc2n1Cc1ccccc1` [LY315920], for which the “serum group IIA secretory phospholipase A2 enzyme activity” value in test [3] is “inhibit”.
As to `CC[C@H](C)[C@H](NC(=O)[C@H](Cc1ccc(O)cc1)NC(=O)[C@@H](NC(=O)CNC(=O)[C@H](CC(=O)O)NC(=O)[C@H](Cc1c[nH]c2ccccc12)NC(=O)[C@@H](NC(=O)[C@H](Cc1cnc[nH]1)NC(=O)[C@@H](NC(=O)[C@H](CC(=O)O)NC(=O)[C@@H](NC(=O)[C@H](CCCNC(=N)N)NC(=O)CNC(=O)[C@@H](N)CC(C)C)C(C)C)[C@@H](C)CC)C(C)C)C(C)C)C(=O)N[C@@H](CCCNC(=N)N)C(=O)NCC(=O)N[C@@H](CCCNC(=N)N)C(=O)O` [P-NT.II] (H-LGRVDIHVWDGVYIRGR-OH), the IC50 in test [4] (IC50 (mean±SD; n=3)) is 4.91 ± 2.47 µM; in [4] (IC50 ranging), 3.9 to 4.9 µM; in test [5], 3.91 ± 1.67 µM; in test [6] (human recombinant cPLA2, read-out: IC50 (mean±SD; n=3)), 23.9 ± 2.39 µM; in test [7], 5.3 µM.
On to `CC[C@H](C)[C@H](NC(=O)[C@H](CC(=O)O)NC(=O)[C@@H](NC(=O)[C@H](CCCNC(=N)N)NC(=O)[C@H](CCCNC(=N)N)NC(=O)[C@@H](N)Cc1ccc(O)cc1)C(C)C)C(=O)NCC(=O)N[C@@H](CC(C)C)C(=O)N[C@@H](CCCNC(=N)N)C(=O)N[C@H](C(=O)N[C@@H](Cc1c[nH]c2ccccc12)C(=O)N[C@@H](Cc1c[nH]cn1)C(=O)N[C@@H](CC(=O)O)C(=O)N[C@@H](CC(C)C)C(=O)NCC(=O)N[C@H](C(=O)NCC(=O)O)C(C)C)C(C)C` [Scrambled P-NT.II, reference compound] (H-YRRVDIGLRVWHDLGVG-OH; N-terminus and C-terminus assumed), for which, in [8], the “competition with labeled P-NT.II for binding to type IIA sPLA2” value was “failed to block”. In test [4] (IC50), this molecule registered an IC50 above 250 µM. In addition, the “ultrastructural features of the articular chondrocytes (TEM)” value in [9] (1–4 weeks post-treatment) was “more or less similar to those described for untreated Tg197 mice”. Also, in test [9] (4 wk treatment), the “% of total at indicated HS scores, HS 2” value is reported as 16.7%; the “% of total at indicated HS scores, HS 3” value is 83.3%; the “% of total at indicated HS scores, HS 4” value is 0%; the “Mean HS ± SEM” value is 3.25 ± 0.17. Also, the “inhibition of cPLA2” value in [6] is “failed to inhibit”. In addition, the “inhibition of sPLA2” value in test [2] was “failed to inhibit”. Besides, the “circulating sPLA2 compared with untreated mice” value in [10] is “not significantly different”.
“biotinylated-P-NT.II: P-NT.II labeled with biotin, 0.18 mol biotin bound to 1 mol of P-NT.II (LGRVDIHVWDGVYIRGR; also: labeled with biotin, 0.18 mol biotin per mol peptide, site not given here)”: the ELISA reaction result in test [11], in [12], in [13] and in test [14] was “reacted positively” each time. For the same molecule, in [13], the “binding to cPLA2 relative to sPLA2s” value was “relatively much weaker”.
